This is an account of results in US8329390B2, “Detection of transmembrane potentials using N,N,N′-trialkyl thiobarbituric acid-derived polymethine oxonols” (priority 2004, dated 2012).

The structures appear in SMILES notation. A value given as a limit tells only on which side of the number the result lay.

The series is described as follows: Absorption and fluorescence spectral properties. The format is physicochemical. The text has this: For all the syntheses, all starting materials and reagents were of the highest purity available (Aldrich Chemical Company, Milwaukee, Wis.) and used without further purification, except where noted. Solvents were HPLC grade (Fisher Scientific, Pittsburgh, Pa.) and were dried over activated molecular sieves. NMR spectra were acquired on a Varian Gemini 200 MHz spectrometer. Absorption and fluorescence spectra were taken respectively on a Cary 50 BIO and Varain Eclipse (Varian, Inc., Palo Alto, Calif.).

Compound `CN1C(=O)C(=C/C=C/c2c(O)[nH]c(=S)n(C)c2=O)C(=O)N(C)C1=S` [Compound 4] gave an absorption maximum of 532 nm and an emission maximum of 555 nm. Under “at 532 nm”, the ext. coefficient is recorded as 175,000 M^−1 cm^−1. For the same compound, the quantum yield (in octanol) is over 0.2.
